This note sets out measurements from paper PMC10136296, “Biological Screening and Crystallographic Studies of Hydroxy γ-Lactone Derivatives to Investigate PPARγ Phosphorylation Inhibition” (Biomolecules, 2023).

In series [1] the target is T1, PPARγ-LBD (Homo sapiens, UniProt P37231).
T1 construct: PPARγ-LBD (NP_001120802; aa 207−474) was expressed as an N-terminal His-tagged protein; His-tag (N, cleaved yes); made in house; host or cells: E. coli BL21(DE3), pET-28a(+)
T1 sequence (P37231 207-474 isoform P37231-2 limits assumed): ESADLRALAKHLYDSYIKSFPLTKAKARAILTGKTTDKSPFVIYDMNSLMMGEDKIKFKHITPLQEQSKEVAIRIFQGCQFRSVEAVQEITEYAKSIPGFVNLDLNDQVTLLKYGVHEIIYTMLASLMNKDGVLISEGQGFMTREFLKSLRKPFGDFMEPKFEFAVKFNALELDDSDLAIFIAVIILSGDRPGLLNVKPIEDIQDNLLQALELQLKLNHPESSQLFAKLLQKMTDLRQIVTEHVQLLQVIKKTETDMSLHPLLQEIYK
The series is described as follows: SPR full kinetic analysis on immobilized PPARγ-LBD. In kind it is binding. The note with it: for Kd: SPR full kinetic analysis, KD = Koff/Kon; for koff / kon: SPR, 25 °C, 5 μM to 312 nM, 1:1 model. The protocol: SPR experiments were performed at 25 °C using a Pioneer AE optical biosensor (Sartorius, Varedo, Italy) equipped with a PCH sensor chip (linear polycarboxylate hydrogel layer) and equilibrated with running buffer 10 mM Hepes, pH 7.4, 150 mM NaCl, 0.005% Tween-20, 1% DMSO. The PCH sensor chip was installed and conditioned in accordance with the manufacturer’s instructions. PPARγ-LBD was immobilized on the surface using amine coupling chemistry. Briefly, flow cells were activated for 5 min by injecting 125 μL of 1:1 ratio of 100 mM N-hydroxysuccinimide (NHS)/400 mM N-ethyl-N’-(3-(dimethylamino)propyl)carbodiimide (EDC). The protein solution (150 μg mL^−1 in 10 mM Na Acetate, pH 4.5) was then injected at 10 μL min^−1, followed by a 70 μL injection of 1 M ethanolamine (pH 8.0) to block any remaining activated groups on the surface. Approximately 11,770 and 10,800 RUs of protein were immobilized on Channel 1 and Channel 3 of the sensor chip, respectively, whereas Channel 2 was used as a reference for non-specific binding. […] The analytes were dialyzed in the running buffer (1% final DMSO concentration) and primary screened using OneStep® injection technology, which allows the compounds to diffuse into a moving stream of buffer to generate a concentration gradient (from 0 up to 10 μM) during a single injection at a flow rate of 50 μL min^−1 [40]. For each analyte injection, a long dissociation (600 s) was allowed, and regeneration of the sensing surface was not used. Next, the full kinetic analysis of the selected compounds was performed at different serial concentrations (from 5 μM to 312 nM) for 120 s at a constant flow rate of 50 μL min^−1. For each analyte injection, a dissociation of 180 s was allowed, followed by a short mild regeneration step with 1 M NaCl. All sensorgrams were processed using double referencing. First, responses from the reference surface (Channel 2) were subtracted from the binding responses collected over the reaction surfaces to correct for bulk refractive index changes between the flow buffer and analyte sample. Second, the response from the closest blank injection (zero analyte concentration) was subtracted to compensate for drift and small differences between the activated channel and the reference flow cell Channel 2. As an internal control for the gradient dispersion process, an injection of 3% sucrose dissolved in the assay buffer was performed for all the injections to ensure proper gradient formation and to calibrate for buffer viscosity. To obtain kinetic rate constants and affinity constants, the corrected response data were fitted in QDAT software provided with the instrument (BioLogic Software, Canberra, Australia). A kinetic analysis of the ligand/analyte interaction was obtained by fitting the response data to a reversible 1:1 bimolecular interaction model. The equilibrium dissociation constant (KD) was determined by the ratio Koff/Kon. This experiment was performed in duplicate.
The OneStep® injection technology was used for the screening of our compound collection. This method has been successfully employed in our previous work to test a series of natural products, extracted from medicinal plants. Its efficiency and reliability as a screening technique were confirmed by the rapid identification of promising compounds. This approach is based on the well-established concept of Taylor dispersion injection, which allows the compound to diffuse into a moving stream of buffer, producing a gradient throughout the injections. In this way, a wide range of analyte concentrations can be readily tested. In this assay, all the ligands from the DMSO stock solutions were dialyzed into the running buffer at 10 μM (1% final DMSO concentration) and gradient-injected for 120 s over the sensor chip surface. […]

Series [2] addresses T2, human PPARγ subtype (hPPARγ), Gal4-PPARγ-LBD (Homo sapiens, UniProt P37231).
T2 construct: expressed in transfected cells; host or cells: HepG2
T2 sequence (P37231 238-503 limits assumed): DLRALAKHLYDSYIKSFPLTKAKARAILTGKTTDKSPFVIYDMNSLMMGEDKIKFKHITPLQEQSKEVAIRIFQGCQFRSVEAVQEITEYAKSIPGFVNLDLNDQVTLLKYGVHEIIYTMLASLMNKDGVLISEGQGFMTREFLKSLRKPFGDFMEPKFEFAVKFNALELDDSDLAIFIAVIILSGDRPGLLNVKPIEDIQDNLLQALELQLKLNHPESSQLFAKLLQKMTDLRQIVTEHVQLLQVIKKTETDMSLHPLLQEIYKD
The series is described as follows: GAL4-PPAR transactivation assay, antagonist mode (competition with rosiglitazone). In kind it is cell-based. The note with it: HepG2, antagonist mode vs rosiglitazone 1 µM; mean ± SEM; uncertain above 10 µM because of cytotoxicity. The text has this:
(§1) Reference compounds, the cell culture medium, and the reagents were purchased from Sigma-Aldrich (Merck KGaA). The expression vectors bearing the chimeric receptor containing the yeast Gal4-DNA binding domain fused to the human PPARγ-LBD, and the reporter plasmid for this Gal4 chimeric receptor (pGal5TKpGL3), comprising five repeats of the Gal4 response elements upstream of a minimal thymidine kinase promoter adjacent to the coding sequence for luciferase, were described in a previous study. A culture of the human hepatoblastoma cell line HepG2 (Interlab Cell Line Collection, Genoa, Italy) was conducted in minimum essential medium (MEM) containing 10% heat-inactivated fetal bovine serum, 100 U of penicillin G mL^−1, and 100 μg mL^−1 of streptomycin sulfate at 37 °C in a humidified atmosphere of 5% CO2. For transactivation assays, cells were seeded in a 24-well plate at a concentration of 10^5 cells per well and were transfected after 24 h by CAPHOS, a calcium phosphate method, according to the manufacturer’s guidelines. Cell transfection was performed using expression plasmids encoding the fusion protein Gal4-PPARγ-LBD (30 ng), pGal5TKpGL3 (100 ng), and pCMVβgal (250 ng). […] Cell extracts were subsequently analyzed for luciferase activity via luminometry (VICTOR^3 V multilabel plate reader; PerkinElmer, Waltham, MA, USA). ortho-Nitrophenyl-β-D-galactopyranoside was used to measure β-galactosidase activity, following a previously described method. […]
(§2) Furthermore, compounds 1–3 were evaluated in vitro for their agonist activity towards the human PPARγ subtype (hPPARγ) by employing the GAL4-PPAR transactivation assay. […] We evaluated the efficacy of 1–3 on PPARγ at increasing concentrations up to 100 μM. […] The compounds were also analyzed in antagonist mode by conducting a competitive binding assay, in which PPARγ activity was measured at a fixed concentration of the reference agonist rosiglitazone (1 µM) in cells treated with increasing concentrations of 1–3. […]

Series [3] addresses T3, CDK5/p35 (Homo sapiens, UniProt Q00535).
T3 construct: purchased Sigma-Aldrich (Merck KGaA) SRP5011
Nature of the series: CDK5 inhibition test with histone H2A/H2B as substrate. In kind it is biochemical. To be noted: 5 µM ligand, H2a/H2b as phosphorylation target. The protocol: The degree of CDK5 inhibition in the presence of compounds 1, 2, and 3 was evaluated with the same protocol described above for the in vitro kinase assay. In detail, the test was carried out for 30 min at 30 °C in 50 μL of the assay buffer containing 50 mM Tris-HCl, pH 7.5, 800 ng H2A/H2B, 5 μM ligand (for the calculation of the ligand concentration, the excess amount of compounds 1, 2, and 3 possibly not bound to PPARγ was overestimated), 1% DMSO, 2.5 mM MgCl2, 50 μM DTT, 500 μM ATP, 40 ng of CDK5/p35 (Sigma-Aldrich code no. SRP5011; Merck KGaA). The Pro-Q™ Diamond Phosphoprotein Gel Stain method and a Chemidoc Imaging System (Bio-Rad) were used for measuring the phosphorylation level. The experiment was performed in triplicate and the statistical significance was estimated as above.
Furthermore, these molecules were also screened as potential inhibitors of CDK5 itself, considering their structural similarity to BLI (Figure 2), which was reported in the literature as both a PPARγ partial agonist and a CDK5 inhibitor [10]. A kinase activity test was performed in the presence of compounds 1, 2, and 3, using histone H2a/H2b as a phosphorylation target.

In series [4] the test system is PPARγ Ser245 phosphorylation by CDK5/p35. The series is described as follows: In vitro kinase assay: CDK5-mediated phosphorylation of PPARγ-LBD (Pro-Q Diamond stain). In kind it is biochemical. To be noted: 10 µM ligand, 30 min at 30 °C. The method, then:
The assay was performed on PPARγ-LBD, in the apo-form and in the complex with ligands 1–3. For the kinase assay, stock solutions of ligands were prepared by diluting with 100% DMSO to a concentration of 500 μM. The stock solutions were further diluted with 50 mM Tris-HCl, pH 7.5, up to the final concentration of 10 μM and pre-equilibrated overnight at 4 °C with the protein.
The kinase assay was carried out for 30 min at 30 °C in 50 μL of the assay buffer containing 50 mM Tris-HCl, pH 7.5, 800 ng of PPARγ-LBD, 10 μM ligand, 1% DMSO, 2.5 mM MgCl2, 50 μM DTT, 500 μM ATP, 40 ng of CDK5/p35 (Sigma-Aldrich code no. SRP5011; Merck KGaA). The experiment was performed in triplicate.
Pro-Q™ Diamond phosphoprotein gel stain (ThermoFisher, Waltham, MA, USA) provides a convenient method for selectively staining phosphoproteins in acrylamide gels, without the need for blotting or the use of phosphoprotein-specific antibodies. After performing electrophoresis, the gel was stained with Pro-Q™ Diamond and analyzed using a Chemidoc Imaging System (Bio-Rad). A further step of gel staining with SYPRO™ Ruby total-protein gel stain (ThermoFisher) was performed. Determining the ratio of the signal intensities of Pro-Q™ Diamond dye to SYPRO™ Ruby dye for each band provides a measure of the phosphorylation level normalized to the total amount of protein. More detailed information on the protocol used in this experiment can be obtained on the ThermoFisher website.
Finally, to assess the ability of 1–3 to inhibit the CDK5-mediated phosphorylation of PPARγ in vitro, a kinase assay was set up and optimized to measure the inhibition rate, as described in the experimental section. The phosphoproteins were detected and quantified by using the Pro-Q™ Diamond phosphoprotein gel stain method.

For series [5], the target named is T2, human PPARγ subtype (hPPARγ), Gal4-PPARγ-LBD. The series is described as follows: GAL4-PPAR transactivation assay, agonist mode. In kind it is cell-based. To be noted: HepG2, up to 100 µM; rosiglitazone maximum = 100%.
Excerpt: as §1, §2

The subject of series [6] is HepG2. Nature of the series: Cytotoxicity seen by microscopy in the transactivation assay. In kind it is cell-based, human. The note with it: HepG2, at 25 and 100 µM, visually examined, data not shown. The protocol:
Furthermore, compounds 1–3 were evaluated in vitro for their agonist activity towards the human PPARγ subtype (hPPARγ) by employing the GAL4-PPAR transactivation assay. The results were compared to the corresponding data for rosiglitazone, used as a reference in the test. The maximum fold induction obtained with the reference agonist was defined as 100%. We evaluated the efficacy of 1–3 on PPARγ at increasing concentrations up to 100 μM. […] The compounds were also analyzed in antagonist mode by conducting a competitive binding assay, in which PPARγ activity was measured at a fixed concentration of the reference agonist rosiglitazone (1 µM) in cells treated with increasing concentrations of 1–3. The inhibition curves, from which the IC50 values were extrapolated as mean ± SEM of three duplicate experiments, are reported in Figure 4A. […] Consequently, the IC50 values could not be estimated with a certainty above 10 µM, which was the threshold at which the cytotoxicity was null or negligible. From the inhibition curves (Figure 4A), we hypothesized the absence of antagonism: the activity remained unchanged up to 10 µM and then decreased at 25 µM and 100 µM. However, at these concentrations, the signal reduction could not be unequivocally attributed to PPARγ antagonism, due to the cytotoxic effects of the compounds at higher doses.

T3 sequence (Q00535 whole entry): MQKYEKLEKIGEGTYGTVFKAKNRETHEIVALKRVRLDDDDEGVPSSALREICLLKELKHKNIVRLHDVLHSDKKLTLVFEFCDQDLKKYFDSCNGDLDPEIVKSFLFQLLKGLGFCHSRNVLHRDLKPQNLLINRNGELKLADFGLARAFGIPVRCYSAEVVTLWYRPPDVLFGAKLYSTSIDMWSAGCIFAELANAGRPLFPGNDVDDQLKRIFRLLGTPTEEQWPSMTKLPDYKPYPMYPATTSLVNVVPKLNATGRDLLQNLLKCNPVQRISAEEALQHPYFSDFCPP
T3 sequence (Q15078 whole entry partner): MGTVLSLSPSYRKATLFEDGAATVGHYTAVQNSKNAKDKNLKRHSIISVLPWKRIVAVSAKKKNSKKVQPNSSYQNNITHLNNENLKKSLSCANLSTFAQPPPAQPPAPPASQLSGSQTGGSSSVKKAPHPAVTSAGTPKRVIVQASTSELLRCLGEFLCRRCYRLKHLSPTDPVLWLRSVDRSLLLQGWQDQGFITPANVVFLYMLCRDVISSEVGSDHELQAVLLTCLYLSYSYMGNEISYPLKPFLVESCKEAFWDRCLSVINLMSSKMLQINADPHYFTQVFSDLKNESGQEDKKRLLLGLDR

In series [1], `O=C1OC(c2cccc(O)c2)C(C(=O)c2ccccc2)=C1O` (stereo not drawn) [Compound 2, 4-Benzoyl-3-hydroxy-5-(3-hydroxyphenyl)furan-2(5H)-one] came in with a Kd of 1.93 ± 0.02 µM, a koff of 0.02241 ± 9e-05 s⁻¹ and a kon of 11700 ± 1e+06 M⁻¹ s⁻¹. Besides, in series [2], the half-inhibitory concentration (IC50) amounted to 35.1 ± 2.8 µM. Further, the CDK5 inhibition result in series [3] is “more significant inhibitory activity”. Also, in series [4], the “inhibition of Ser245 phosphorylation” value is on record as approximately 40%. Also, the “agonist activity in the PPARγ transactivation assay” value (shortened to “agonist activity”) in series [5] was “PPARγ non-agonists”.
In the case of `O=C1OC(c2ccc(OCc3cccc4ccccc34)cc2)C(c2ccccc2)=C1O` (stereo not drawn) [Compound 3, 3-Hydroxy-5-(4-(naphthalen-1-ylmethoxy)phenyl)-4-phenylfuran-2(5H)-one], the melting point is 204 °C. Further, in series [1], the Kd came to 1.67 ± 0.02 µM, the koff was determined as 0.0362 ± 0.0001 s⁻¹ and the on-rate constant (kon) is 21700 ± 2e+06 M⁻¹ s⁻¹. The 50% inhibitory concentration (IC50) in series [2] was 16.2 ± 2.5 µM. Besides, the CDK5 inhibition result in series [3] was “more significant inhibitory activity”. Moreover, the cytotoxicity entry in series [6] is listed as “a certain cytotoxicity”. Also, the “inhibition of Ser245 phosphorylation” value in series [4] was approximately 40%. Also, the “agonist activity” value in series [5] is “PPARγ non-agonists”.
`O=C1OC(c2cccc(O)c2)C(c2ccc(Br)cc2)=C1O` (stereo not drawn) [Compound 1, 4-(4-Bromophenyl)-3-hydroxy-5-(3-hydroxyphenyl)furan-2(5H)-one]: the melting point was 194 to 195 °C (dec.). In series [1], this compound registered a dissociation constant (Kd) of 3.75 ± 0.06 µM, an off-rate (koff) of 0.0679 ± 0.0004 s⁻¹ and a kon of 18100 ± 3e+06 M⁻¹ s⁻¹. In addition, in series [2], the IC50 is 39.9 ± 1.2 µM. The CDK5 inhibition result in series [3] is on record as “very low inhibition effect”. In series [4], the “inhibition of Ser245 phosphorylation” value was approximately 40%. For the same compound, the “agonist activity” value in series [5] is reported as “PPARγ non-agonists”.

The Kd is a measure of binding affinity in units of concentration. Lower therefore signals tighter binding. What is called koff is the first-order rate constant of dissociation. Broadly, the kon is a measure of how fast the partners come together. Read a low kon as slow association. Broadly, the IC50 is the midpoint of a concentration-inhibition curve. By melting point is commonly meant the temperature, or range, at which the solid turns liquid.
